Columns and labels:
Experiment in all cases: relative viability (nuclei count vs DMSO), 5 days (fraction); higher = more cells survive
[1] = compound: CC1=C(C=C(C=C1)NC(=O)C2=CC(=CC=C2)C(C)(C)C#N)NC3=CC4=C(C=C3)N=CN(C4=O)C [AZ628] + CC(=O)c1c(C)c2cnc(Nc3ccc(N4CCNCC4)cn3)nc2n(C2CCCC2)c1=O [Palbociclib] (partner 0.5 µM)
How it was run: (§1)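 Relative viability is defined as nuclei in treated wells over nuclei in vehicle wells. Duplicate plates were run and medians reported. Lung cancer cell lines in 1536-well plates were dosed by pin tool one day after seeding, with one drug or with a fixed anchor-drug dose plus five library-drug doses (not always all listed) in √10 steps, and nuclei were counted after 5 days.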

[2] = compound: C1CC2=C(C1)C=C(C=C2)OC3=NC(=C4C(=N3)N(C=N4)CC5=CC=C(C=C5)C6=CC=CC=C6)N[C@@H](CC7=CC=CC=C7)CO [QS11] + Cc1nc(Nc2ncc(C(=O)Nc3c(C)cccc3Cl)s2)cc(N2CCN(CCO)CC2)n1 [Dasatinib] (partner 0.075 µM)
How it was run: as §1

[3] = compound: CC1=C(C=C(C=C1)NC(=O)C2=CC(=CC=C2)C(C)(C)C#N)NC3=CC4=C(C=C3)N=CN(C4=O)C [AZ628] + Nc1nc2[nH]cc(CCc3ccc(C(=O)N[C@@H](CCC(=O)O)C(=O)O)cc3)c2c(=O)[nH]1 [Pemetrexed] (partner 0.2 µM)
How it was run: as §1

[4] = compound: CC1=C(C=C(C=C1)NC(=O)C2=CC(=CC=C2)C(C)(C)C#N)NC3=CC4=C(C=C3)N=CN(C4=O)C [AZ628] + CC1(C)CCC(c2ccc(Cl)cc2)=C(CN2CCN(c3ccc(C(=O)NS(=O)(=O)c4ccc(N[C@H](CCN5CCOCC5)CSc5ccccc5)c(S(=O)(=O)C(F)(F)F)c4)cc3)CC2)C1 [Navitoclax] (partner 0.5 µM)
How it was run: as §1

| Cell Line | relative viability ([1]; first compound 0.08 µM) | relative viability ([1]; first compound 0.253 µM) | relative viability ([1]; first compound 0.8 µM) | relative viability ([1]; first compound 2.53 µM) | relative viability ([1]; first compound 8 µM) | relative viability ([2]; first compound 0.08 µM) | relative viability ([2]; first compound 0.253 µM) | relative viability ([2]; first compound 0.8 µM) | relative viability ([2]; first compound 2.53 µM) | relative viability ([2]; first compound 8 µM) | relative viability ([3]; first compound 0.08 µM) | relative viability ([3]; first compound 0.253 µM) | relative viability ([3]; first compound 0.8 µM) | relative viability ([3]; first compound 2.53 µM) | relative viability ([3]; first compound 8 µM) | relative viability ([4]; first compound 0.08 µM) | relative viability ([4]; first compound 0.253 µM) | relative viability ([4]; first compound 0.8 µM) | relative viability ([4]; first compound 2.53 µM) | relative viability ([4]; first compound 8 µM) |
| --- | --- | --- | --- | --- | --- | --- | --- | --- | --- | --- | --- | --- | --- | --- | --- | --- | --- | --- | --- | --- |
| 201T | 0.368 | 0.358 | 0.381 | 0.39 | 0.366 | 0.57 | 0.543 | 0.561 | 0.599 | 0.376 | 0.347 | 0.345 | 0.308 | 0.339 | 0.352 | 1.22 | 1.21 | 1.25 | 1.27 | 1.23 |
| A549 |  |  |  |  |  |  |  |  |  |  |  |  |  |  |  | 1.19 | 1.16 | 1.02 | 1.12 | 0.589 |
| A-427 | 0.475 | 0.446 | 0.497 | 0.475 | 0.427 | 0.646 | 0.718 |  | 0.708 | 0.729 | 1.12 | 0.97 | 1.01 | 0.957 | 0.609 | 0.875 | 0.826 | 0.726 | 0.671 | 0.31 |
| ABC-1 | 0.795 | 0.586 | 0.5 | 0.884 | 0.712 | 0.577 | 0.436 |  | 0.605 | 0.571 |  |  |  |  |  |  |  |  |  |  |
| BEN | 0.487 | 0.489 | 0.46 | 0.51 | 0.452 | 0.29 | 0.37 | 0.352 | 0.325 | 0.33 | 0.776 | 0.614 | 0.737 | 0.716 | 0.749 | 0.0576 | 0.0642 | 0.0651 | 0.0689 | 0.0471 |
| CAL-12T | 0.473 | 0.304 | 0.209 | 0.232 | 0.161 | 0.4 | 0.365 | 0.466 | 0.368 | 0.334 | 1.37 | 1.18 | 1.15 | 1.33 | 0.716 | 1.33 |  | 1.24 | 1.28 | 0.826 |
| COR-L23 | 0.327 | 0.293 | 0.257 | 0.268 | 0.187 | 0.505 | 0.59 | 0.552 | 0.358 | 0.355 | 0.22 | 0.23 | 0.198 | 0.219 | 0.21 | 1.02 | 1.12 | 1.2 | 1.07 | 0.492 |
| COR-L 105 | 0.368 | 0.368 | 0.429 | 0.344 | 0.453 | 0.281 | 0.267 | 0.334 | 0.423 | 0.331 | 1.35 | 1.03 | 1.18 | 1.16 | 1.03 | 0.81 | 0.967 | 0.761 | 0.655 | 0.652 |
| Calu-6 |  |  |  |  |  |  |  |  |  |  |  |  |  |  |  | 0.926 | 0.494 | 0.317 | 0.595 | 0.152 |
| ChaGo-K-1 | 0.993 | 0.934 | 0.892 | 0.986 | 1.02 | 0.41 | 0.556 | 0.518 | 0.655 | 0.618 | 0.27 | 0.277 | 0.262 | 0.298 | 0.243 | 1.1 |  | 0.751 | 1.1 | 1.14 |

Source: the supplement of paper PMC10307832
